Converted amounts (≈) assume the structure as drawn. Values belong to the compound of their own block, whether it stands above or below them.
Experiments:
[1] = Solubility in water at room temperature; format: physicochemical; details: read-out: upper limit of the solubility in water
[2] = test system: Lactobacillus casei YIT 9029; assay: Cell wall degradation of YIT 9029 by mutanolysin (recombinant) alone with added saccharide, turbidity OD615; format: cell-based; details: 37° C.; for degradation-promoting effect, mutanolysin alone: 0.5, 1.0 or 1.5 M, FIG. 5B
Procedure: The bacteria were suspended in a 5 mM Tris-maleate buffer solution (manufactured by Sigma-Aldrich Co.) (pH 6.4) of the same volume as that of the original bacterial solution, and 100 μg of lysozyme from chicken egg white lyophilized powder (manufactured by Sigma-Aldrich Co., hereinafter, referred to as lysozyme), which is egg white lysozyme, and 100 U of mutanolysin (recombinant) (manufactured by A&A Biotechnology) were added per 1 mL of the suspension. The reaction solution was treated at 37° C. for 24 hours. In addition, in order to examine the influence of the addition of a saccharide on cell wall degradation reaction, the same reaction was performed using a Tris-maleate buffer solution containing D-glucose or L-rhamnose at a final concentration of 0.5 M instead of the Tris-maleate buffer solution. Each reaction was performed in triplicate. The turbidity (OD615) of the bacterial suspension at 615 nm (maximal absorption wavelength; measurement wavelength range: 575-660 nm) was measured over time using a spectrophotometer PiCOSCOPE PAS-110 (manufactured by Ushio Inc.), and the degradation rate was calculated by the following equation (1). The degradation rate was shown by the mean±standard deviation of triplicate. Degradation rate=1−(OD615 after reaction/OD615 before reaction) (1). (6) Result It was expected from Examples 1 to 4 that a saccharide such as D-arabinose increases the activity of mutanolysin to promote the degradation of cell wall. However, since a possibility that the saccharide increases the activity of lysozyme that has been added together cannot be excluded, the degradation rate when YIT 9029 was treated with mutanolysin or lysozyme alone was examined using some saccharides. […] Each reaction was performed without replicates. […] Each reaction was performed in triplicate.

[3] = test system: Lactobacillus casei YIT 9029; assay: Cell wall degradation of YIT 9029 by lysozyme and mutanolysin (recombinant) with added saccharide, turbidity OD615; format: cell-based; details: saccharide 0.5 M, 37° C.; for cell wall degradation-promoting effect / cell wall degradation-promoting effect after 1 hour of the reaction: FIG. 4; for cell wall degradation rate compared with the reaction in which no saccharide was added: up to 24 hours, FIG. 1
Procedure: Lactobacillus casei YIT 9029 (hereinafter, referred to as YIT 9029) was used. Thirty microliters of the pre-cultured bacterial solution of about 2×10^9 CFU/mL cultured in the MRS Broth was inoculated in 30 mL of the MRS Broth prepared in the above (2) and then cultured at 37° C. for 24 hours. […] The bacteria were suspended in a 5 mM Tris-maleate buffer solution (manufactured by Sigma-Aldrich Co.) (pH 6.4) of the same volume as that of the original bacterial solution, and 100 μg of lysozyme from chicken egg white lyophilized powder (manufactured by Sigma-Aldrich Co., hereinafter, referred to as lysozyme), which is egg white lysozyme, and 100 U of mutanolysin (recombinant) (manufactured by A&A Biotechnology) were added per 1 mL of the suspension. The reaction solution was treated at 37° C. for 24 hours. In addition, in order to examine the influence of the addition of a saccharide on cell wall degradation reaction, the same reaction was performed using a Tris-maleate buffer solution containing D-glucose or L-rhamnose at a final concentration of 0.5 M instead of the Tris-maleate buffer solution. Each reaction was performed in triplicate. The turbidity (OD615) of the bacterial suspension at 615 nm (maximal absorption wavelength; measurement wavelength range: 575-660 nm) was measured over time using a spectrophotometer PiCOSCOPE PAS-110 (manufactured by Ushio Inc.), and the degradation rate was calculated by the following equation (1). The degradation rate was shown by the mean±standard deviation of triplicate. Degradation rate=1−(OD615 after reaction/OD615 before reaction) (1). (6) Result […] Each reaction was performed in triplicate. The same reaction as in Example 1 was performed except that D-arabinose, L-arabinose, D-lyxose, L-lyxose, D-xylose, L-xylose, D-ribose, L-ribose, D-fucose, L-fucose, D-mannose, L-mannose, D-galactose, or D-fructose was added as the saccharide, and the cell wall degradation-promoting effect of each saccharide was examined. Each reaction was performed in triplicate. […] Each reaction was performed in triplicate.

[4] = test system: Lactobacillus casei YIT 9029; assay: Cell wall degradation of YIT 9029 by lysozyme alone with added saccharide, turbidity OD615; format: cell-based; details: 1.5 M, 37° C., FIG. 5A
Procedure: The bacteria were suspended in a 5 mM Tris-maleate buffer solution (manufactured by Sigma-Aldrich Co.) (pH 6.4) of the same volume as that of the original bacterial solution, and 100 μg of lysozyme from chicken egg white lyophilized powder (manufactured by Sigma-Aldrich Co., hereinafter, referred to as lysozyme), which is egg white lysozyme, and 100 U of mutanolysin (recombinant) (manufactured by A&A Biotechnology) were added per 1 mL of the suspension. The reaction solution was treated at 37° C. for 24 hours. In addition, in order to examine the influence of the addition of a saccharide on cell wall degradation reaction, the same reaction was performed using a Tris-maleate buffer solution containing D-glucose or L-rhamnose at a final concentration of 0.5 M instead of the Tris-maleate buffer solution. Each reaction was performed in triplicate. The turbidity (OD615) of the bacterial suspension at 615 nm (maximal absorption wavelength; measurement wavelength range: 575-660 nm) was measured over time using a spectrophotometer PiCOSCOPE PAS-110 (manufactured by Ushio Inc.), and the degradation rate was calculated by the following equation (1). The degradation rate was shown by the mean±standard deviation of triplicate. Degradation rate=1−(OD615 after reaction/OD615 before reaction) (1). […]

[5] = test system: Lactobacillus casei YIT 9029; assay: Cell wall degradation of YIT 9029 by lysozyme and mutanolysin (recombinant) with added saccharide, turbidity OD615; format: cell-based; details: for difference between the promotion effects of the D-form and the L-form: 0.1 M to 1.5 M; for difference between the promotion effects of the D-form and the L-form / concentration dependence of the degradation rate: FIG. 6; for concentration dependence of the degradation rate: concentration range of 0.1 M and 1.0 M
[6] = test system: Lactobacillus casei YIT 9029; assay: Cell wall degradation of YIT 9029 by lysozyme and mutanolysin from Streptomyces globisporus ATCC 21553 with added saccharide, turbidity OD615; format: cell-based; details: 1.5 M, 37° C. or 50° C., mutanolysin from Streptomyces globisporus ATCC 21553, FIG. 3A
Procedure: The reaction solution was treated at 37° C. for 24 hours. In addition, in order to examine the influence of the addition of a saccharide on cell wall degradation reaction, the same […] buffer solution. Each reaction was performed in triplicate. The turbidity (OD615) of the bacterial suspension at 615 nm (maximal absorption wavelength; measurement wavelength range: 575-660 nm) was measured over time using a spectrophotometer PiCOSCOPE PAS-110 (manufactured by Ushio Inc.), and the degradation rate was calculated by the following equation (1). The degradation rate was shown by the mean±standard deviation of triplicate. Degradation rate=1−(OD615 after reaction/OD615 before reaction) (1). (6) Result […] Each reaction was performed without replicates.

solubility [1]: ~1500 mM (≈ 225 mg/mL)
Structure (SMILES): O=C[C@@H](O)[C@H](O)[C@H](O)CO [D-arabinose]
promotion of degradation, mutanolysin alone ([2]; 1.5 M, FIG. 5A): promoted the degradation | degradation rate after 1 hour of the reaction relative to the reaction in which no saccharide was added [3]: about 4 times | cell wall degradation-promoting effect [3]: showed the cell wall degradation-promoting effect | promotion of degradation, lysozyme alone [4]: did not show significant promotion of degradation | difference between the promotion effects of the D-form and the L-form ([5]; 37° C. or 50° C.): no difference | promotion of degradation, mutanolysin and lysozyme in combination ([5]; 1.5 M, 37° C., FIG. 5A): promoted the degradation | degradation rate after 1 hour ([5]; 1.5 M, 50° C., FIG. 7): 93% | concentration dependence of the degradation rate [5]: concentration dependence was observed | degradation rate at 50° C. compared with 37° C. ([5]; reaction for a short time, FIG. 7): higher

Structure (SMILES): O=C(CO)[C@@H](O)[C@H](O)[C@H](O)CO [D-fructose]
cell wall degradation-promoting effect after 1 hour of the reaction [3]: showed the cell wall degradation-promoting effect

Structure (SMILES): O=C[C@H](O)[C@@H](O)[C@H](O)[C@H](O)CO [D-glucose, reference compound]
cell wall degradation rate compared with the reaction in which no saccharide was added [3]: decrease in cell wall degradation rate

Structure (SMILES): O=C[C@@H](O)[C@@H](O)[C@H](O)CO [D-lyxose]
cell wall degradation-promoting effect [3]: showed the cell wall degradation-promoting effect

Structure (SMILES): O=C[C@H](O)[C@H](O)[C@H](O)CO [D-ribose]
cell wall degradation-promoting effect [3]: showed the cell wall degradation-promoting effect

Structure (SMILES): O=C[C@H](O)[C@@H](O)[C@H](O)CO [D-xylose]
cell wall degradation-promoting effect after 1 hour of the reaction [3]: showed the cell wall degradation-promoting effect

solubility [1]: ~1500 mM (≈ 225 mg/mL)
Structure (SMILES): O=C[C@H](O)[C@@H](O)[C@@H](O)CO [L-arabinose]
degradation-promoting effect, mutanolysin alone [2]: showed the degradation-promoting effect | degradation rate after 1 hour of the reaction relative to the reaction in which no saccharide was added [3]: about 4 times | cell wall degradation-promoting effect [3]: showed the cell wall degradation-promoting effect | difference between the promotion effects of the D-form and the L-form ([5]; 37° C. or 50° C.): no difference | concentration dependence of the degradation rate [5]: concentration dependence was observed

Structure (SMILES): C[C@H](O)[C@@H](O)[C@@H](O)[C@H](O)C=O [L-fucose]
degradation-promoting effect, mutanolysin alone [2]: showed the degradation-promoting effect | degradation rate after 1 hour of the reaction relative to the reaction in which no saccharide was added [3]: about 3 times | cell wall degradation-promoting effect [3]: showed the cell wall degradation-promoting effect

Structure (SMILES): O=C[C@H](O)[C@H](O)[C@@H](O)CO [L-lyxose]
cell wall degradation-promoting effect [3]: showed the cell wall degradation-promoting effect

Structure (SMILES): O=C[C@H](O)[C@H](O)[C@@H](O)[C@@H](O)CO [L-mannose]
degradation-promoting effect, mutanolysin alone [2]: showed the degradation-promoting effect | cell wall degradation-promoting effect [3]: showed the cell wall degradation-promoting effect

Structure (SMILES): C[C@H](O)[C@H](O)[C@@H](O)[C@@H](O)C=O [L-rhamnose]
degradation-promoting effect, mutanolysin alone [2]: showed the degradation-promoting effect | cell wall degradation rate compared with the reaction in which no saccharide was added [3]: increase in cell wall degradation rate | cell wall degradation rate compared with the reaction in which no saccharide was added [6]: increase in cell wall degradation rate | degradation rate with increasing concentrations of L-rhamnose ([5]; 0.5, 1.0, 1.5 M, 37° C. or 50° C., FIG. 2): increased with increasing concentrations | degradation rate after 24 hours of the reaction ([5]; 1.5 M, 37° C.): 0.97 | cell wall degradation rate compared with the reaction in which no saccharide was added ([5]; 1.5 M, 37° C. or 50° C., mutanolysin (recombinant), FIG. 3B): increase in cell wall degradation rate | degradation rate after 5 hours of the reaction ([5]; 1.5 M, 37° C., rate = 1-(OD615 after/OD615 before)): 0.83 | degradation rate after 24 hours of the reaction ([5]; 1.5 M, 50° C.): 0.87 | degradation rate after 1 hour of the reaction ([5]; 1.5 M, 50° C., rate = 1-(OD615 after/OD615 before)): 0.69

Structure (SMILES): O=C[C@@H](O)[C@@H](O)[C@@H](O)CO [L-ribose]
cell wall degradation-promoting effect [3]: showed the cell wall degradation-promoting effect

Structure (SMILES): O=C[C@@H](O)[C@H](O)[C@@H](O)CO [L-xylose]
cell wall degradation-promoting effect [3]: showed the cell wall degradation-promoting effect

— patent US12721349B2, “Method for promoting bacterial cell wall degradation” (KABUSHIKI KAISHA YAKULT HONSHA, priority 2019, dated 2026)
